Laboratory results reported in publication PMC5884652, “New antimicrobial peptide kills drug-resistant pathogens without detectable resistance” (Oncotarget, 2018).
Where two headings read alike, the source gives them in different places. Ends that are not written are not given here.

Tests used:
[1] = tested on: human red blood cells (hRBCs); test: Hemolysis; type: cell-based; settings: PBS buffer containing 8% hRBCs, 1 h, 37° C, absorbance 414 nm, triplicate
Description: Fresh human red blood cells (hRBCs) from healthy donors were centrifuged at 800 × g and washed with phosphate-buffered saline (PBS) until the supernatant was clear. Twofold serial dilutions of the peptides in PBS were added to a 96-well plate, after which the hRBCs were added to obtain a final concentration of 8% (vol/vol). The samples were then incubated with mild agitation for 1 h at 37° C. The samples were then centrifuged at 800 × g for 10 min, and the absorbance of the supernatant was measured at 414 nm. All the measurements were performed in triplicate, and the percentages of hemolysis were calculated using equation 1: % hemolysis=[(A414 in peptide solution−A414 in PBS)/(A414 in […]−A414 in PBS)]×100 (1)
Where 100% hemolysis was defined as the absorbance measured from hRBCs exposed to 1% Triton X-100 and zero hemolysis was characterized using hRBCs alone in PBS [40].

[2] = C18 RP-HPLC retention time as measure of hydrophobicity; type: physicochemical; settings: chromatographic, linear gradient of 10–60 acetonitrile containing 0.7% trifluoroacetic acid for 50 min, mean, used as measure of hydrophobicity
Description: Supplementary Table 1: Sequence, molecular mass, retention time, and hemolytic and cytotoxic activities of clavaspirin and its analogues
Designation Sequences Molecular Retention HC /HC a EC /EC b
The meanretention time was analyzed using C18 reversed phase-high-performance liquid chromatography (RP-HPLC).
Samples were run using a linear gradient of 10–60 acetonitrile, containing 0.7% trifluoroacetic acid for 50 min. aHemolytic activity was determined in PBS buffer containing 8% hRBCs. bEffective concentration in HaCaT cells was determined in DMEM buffer containing 10% FBS and 1% PS.

[3] = Aggregation assay (light scattering); type: physicochemical; settings: 10 mM sodium phosphate buffer; for Self-aggregation: light scattering ex 400 nm / em 400 nm, 12 h, 37° C, mean of three experiments
Description: Light scattering assays were performed with clavaspirin and its analogue peptides using a Perkin-Elmer LS55 fluorometer. Peptides were dissolved in 10 mM sodium phosphate buffer (pH 5.5 or pH 7.4) and incubated for 12 h at 37° C. Light scattering was excited at 400 nm and the emission was scanned at 400 nm.

S. aureus ATCC 29213 = type: cell-based, Staphylococcus aureus
Description: The method for peptide synthesis has been described in detail previously. […] Bacillus subtilis KCTC 1998 (LB media), Salmonella typhimurium KCTC 1926 (NB media), and Proteus vulgaris KCTC 2433 (NB media) were obtained from the Korean Collection for Type Cultures (Jeollabuk-do, Korea). E. coli CCARM 1238 was received from the Culture Collection of Antibiotic Resistant Microbes at Seoul Women’s University, Korea. Drug-resistant P. aeruginosa 3543, 3904, 3547, and 4007 and S. aureus 3126, 0027, 5157, 1635, 4761, 5159, 3359, 2122, 1630, 1870, 3511, 5156, and 3518 were resistant strains isolated from patients with otitis media in a Chonnam National University’s hospital.
The antibacterial activities of AMPs (melittin, clavaspirin, and its analogs) and conventional antibiotic drugs (erythromycin, gentamicin, ampicillin, and piperacidin) were determined using microdilution assays. Bacterial cells were cultured at 37° C in appropriate culture media at pH 5.5 or pH 7.4 until collection during the mid-log phase and suspended in 10 mM sodium phosphate buffer (pH 5.5 or pH 7.4) supplemented with 10% culture medium. Thereafter, 2× serial dilutions of each peptide (0.25–128 μM) or antibiotic (0.25–256 μM) were added to sterile 96-well plates, and aliquots of cell suspension (5 × 10^5 colony forming units (cfu)/mL) were seeded into each well. The samples were then incubated at 37° C for 24 h. At the end of the incubation, the minimum inhibitory concentrations (MICs) of the peptides were determined using a VERSA Max microplate reader (Molecular Devices Co., Sunnyvale, CA, USA) at a wavelength of 600 nm. […] MIC values were calculated as the mean of 3 independent experiments conducted in triplicate.

Question: Which results are given for FLRFIGSVKHGKGHLVHHIGVAL-NH2 [CSP-4]?
Answer: HC10 (hemolytic activity) [1]: > 400; HC50 (hemolytic activity) [1]: > 400; Retention time [2]: 20.2 min; Self-aggregation ([3]; pH 5.5): very little self-aggregation; Effect of varying the pH on aggregation ([3]; pH 5.5 vs pH 7.4, light scattering): not affected; Self-aggregation ([3]; pH 7.4): very little self-aggregation; MIC, S. aureus (S. aureus ATCC 29213; pH 5.5 (I), 10 mM sodium phosphate buffer, 10% LB, 37° C, 24 h, mean of 3 experiments): 8 µM; MIC, S. aureus (S. aureus ATCC 29213; pH 7.4 (II), 10 mM sodium phosphate buffer, 10% LB, 37° C, 24 h, mean of 3 experiments): 8 µM

Question: Which “HC10 (hemolytic activity)” value [1] does the source give for FKRFIGSVKHGIGHLVHHIGVAL-NH2 [CSP-3] here?
Answer: > 400

Question: And the “HC50 (hemolytic activity)” value [1]?
Answer: > 400

Question: What about the Retention time [2] of the same substance?
Answer: 21.4 min

Question: And the Self-aggregation ([3]; pH 7.4)?
Answer: aggregation increased

Question: What about the “MIC, S. aureus” value (S. aureus ATCC 29213; ATCC 29213, 24 h, pH 5.5) of the same substance?
Answer: 8 µM

Question: And the “MIC, S. aureus” value (S. aureus ATCC 29213; ATCC 29213, 24 h, pH 7.4)?
Answer: 8 µM
